# Read-outs that look alike come from different tables or passages of the source.
# How the values were obtained:
# [1] = system: AMPA receptors; assay: Inhibition of AMPA induced spreading depression in isolated chicken retina; format: cell-based; details: AMPA (5 μM)
# Protocol: (§1) In the first model the spreading depression caused by glutamate agonists (i.e., AMPA or kainate) was studied, while in the second one the transmembrane ion-current induced by the activation of the AMPA/kainate receptors was measured directly.
# Inhibition of AMPA Induced “Spreading Depression” in Isolated Chicken Retina—
# The AMPA antagonistic effect of the compounds of formula (I) or (II) was studied in the in vitro “spreading depression” model (Sheardown Brain Res. 607:189 (1993)). The AMPA antagonists prolong the latency of the development of the “spreading depression” caused by AMPA (5 μM).
# [2] = system: AMPA/kainate receptors; assay: Inhibition of AMPA induced whole-cell current in acutely isolated cerebellar Purkinje cells (patch clamp); format: cell-based; details: 5 μM AMPA, read-out: Inhibition of the ion-currents caused by 5 μM AMPA, IC50
# Protocol: as §1
# The activity of the compounds of the present invention was studied on acutely isolated cerebellar Purkinje cells by measuring the whole-cell current induced by 5 μM AMPA according for example to the method described by Bleakman et al (Neuropharmacology 12:1689 (1996)).
# [3] = system: CD1 mice; assay: Anticonvulsant activity, maximal electroshock seizure (MES) test; format: in vivo; details: Mus musculus
# Protocol: (§2) The anti-seizure activity of some of the compounds of the present invention was measured using the electroshock test (J. Pharmacol. Exp. Ther. 106:319 (1952)) and the results are shown in Table 3. The spasmolytic activity of the compounds of the present invention was investigated by using e.g., pentetrazole (J. Pharmacol. Exp. Ther. 108:168 (1953)), strychnine (J. Pharmacol. Exp. Ther. 129:75 (1960)), bemegrid, nicotine, bicuculline, 4-aminopyridine and mercapto-propionic acid for inducing the clonic-tonic seizures and lethality. The investigated compounds were administered orally in three doses using 10 male CD1 mice/dose, usually 60 min before the induction of seizures.
# [4] = system: CD1 mice; assay: Anticonvulsant activity, pentetrazole induced seizures; format: in vivo; details: Mus musculus, read-out: Pentetrazol ED50
# Protocol: as §2
# [5] = system: CD1 mice; assay: Anticonvulsant activity, strychnine induced seizures; format: in vivo; details: Mus musculus, read-out: Strychnine ED50
# Protocol: as §2
# [6] = system: CD1 mice; assay: Anticonvulsant activity, bemegride induced seizures; format: in vivo; details: Mus musculus, read-out: Bemegride ED50
# Protocol: as §2
# [7] = system: CD1 mice; assay: Anticonvulsant activity, bicuculline induced seizures; format: in vivo; details: Mus musculus, read-out: Bicuculline ED50
# Protocol: as §2
# [8] = system: CD1 mice; assay: Anticonvulsant activity, nicotine induced seizures; format: in vivo; details: Mus musculus; po.
# Protocol: as §2
# [9] = system: CD1 mice; assay: Anticonvulsant activity, 4-aminopyridine induced seizures; format: in vivo; details: Mus musculus, read-out: 4-AP ED50
# Protocol: as §2
# [10] = system: CD1 mice; assay: Anticonvulsant activity, 3-mercapto-propionic acid induced seizures; format: in vivo; details: Mus musculus, read-out: 3-MPA ED50
# Protocol: as §2
# [11] = system: CD1 mice; assay: Muscle relaxant activity, inclined screen test; format: in vivo; details: Mus musculus, ip
# [12] = system: CD1 mice; assay: Muscle relaxant activity, rotarod test; format: in vivo; details: Mus musculus, ip
# [13] = system: Lewis rats; assay: Autoimmune encephalomyelitis model, neurological (clinical) symptoms; format: in vivo; details: Rattus norvegicus, read-out: Neurological symptoms (change compared to controls, %); for change in vivo at 7.5 mg/kg: po, 7.5 mg/kg p.o.; for change in vivo at 30 mg/kg: ip, 30 mg/kg ip.
# Protocol: The compounds were administered intraperitoneally twice a day for 8 days, starting on day 10 after immunization and with an observation period until symptoms were present. 5-15 animals were used in each group. Their weights were 160-180 g (Lewis rats, female) and 180-220 g (Lewis rats, male). The activity of the compounds was determined according to the symptom score values, and compared to those of the control group (see Table 6). Histopathological investigations were carried out on the brain stem, the spinal cord, and the sciatic nerve (Gijbels et al., J. Clin. Invest. 94:2177 (1994)) using 5-10 animal/group.
# Compounds of the invention were further investigated in the autoimmune encephalomyelitis model in rats as outlined in this description before, with the variance that 10 animals were used in each group, of weights 140-160 g (Lewis rats, female).
# [14] = system: CD1 mice; assay: Anti-tremor effect, oxotremorine induced tremor; format: in vivo; details: Mus musculus; po., Litchfield-Wilcoxon, limits in brackets; read-out: ED50, tremor induced by Oxotremorin 1 mg/kg ip.
# [15] = system: CD1 mice; assay: Anti-tremor effect, GYKI 20039 induced tremor; format: in vivo; details: Mus musculus; po., Litchfield-Wilcoxon, limits in brackets; read-out: ED50, tremor induced by GYKI 20039 10 mg/kg ip.
# [16] = system: Lewis rats; assay: Autoimmune encephalomyelitis model, neurological (clinical) symptoms; format: in vivo; details: Rattus norvegicus, po, 3.75 mg/kg p.o., female rats, read-out: Neurological symptoms (change compared to controls, %)
# [17] = system: CD1 mice; assay: Anti-tremor effect, harmaline induced tremor; format: in vivo; details: po., Litchfield-Wilcoxon, limits in brackets
# [18] = system: BN rats; assay: Bronchial hyperresponsiveness of ovalbumin sensitized, antigen challenged BN rats (tracheal rings, acetylcholine); format: in vivo; details: 3.0 mg/kg po, 2 hours pre-challenge, mean ± SE
# From the text: (§3) Bronchial hyperresponsiveness (BHR) and airway eosinophilia (AEP) are characteristic features of bronchial asthma. BHR is typified by an exaggerated response to a wide variety of stimuli that can induce an increased resistance to airflow in the airways. AEP is a result of prolonged eosinophil infiltration, mast cell, and T cell activation in the airways. In actively (e.g., ovalbumin) immunized rats (e.g., Brown Norway [BN] strain), repeated sensitization followed by antigenic challenge results in lung eosinophilia and bronchial hyperresponsiveness to different spasmogens (e.g., acetylcholine). This is the most frequently employed model for studying potential anti-asthmatic effects of new chemical entities.
# (§4) BN rats were actively immunized with allergen (ovalbumin). On day one, rats were sensitized with the subcutaneous administration of ovalbumin suspended in Al(OH)3 (2.5 μg ovalbumin +20 mg Al(OH)3 in 0.5 ml saline). Booster injections (same dose and same route) were given at day 14 and 21. Simultaneously at each occasion 0.25 ml of Bordatella pentussis vaccine was injected intraperitoneally. On day 28, animals were challenged by inhalation of the antigen (vaporized 1% OVA solution for 1 hour). Test compounds were administered orally 2 hours pre-challenge.
# (§5) 48 hours following challenge, they were sacrificed by an overdose of urethane (4-5 ml of 15% urethane given i.p.), bronchoalveolar lavage fluid (BALF) was obtained, and tracheae dissected from the animals. Eosinophil cell count (cells/ml BALF) was determined manually using a selective stain for eosinophils and counting the cells in a Buerker chamber. BHR was determined using tracheal rings suspended in an organ bath. After an equilibration period of 30 minutes, cumulative concentration response curves to acetylcholine were determined. Maximal response of control (unchallenged, non-treated) tracheal rings is obtained at 10^−3 M acetylcholine. The height of this response is defined as 100%. All other contractions are expressed as a percentage and related to the control response.
# [19] = system: BN rats; assay: Airway eosinophilia of ovalbumin sensitized, antigen challenged BN rats (BALF eosinophil count); format: in vivo; details: 3.0 mg/kg po, 2 hours pre-challenge, mean ± SE
# From the text: as §3, §4, §5
# [20] = system: tumor cell types (colon adenocarcinoma, astrocytoma, breast carcinoma, lung carcinoma and neuroblastoma); details: Rzeski et al.; cited from earlier work
# [21] = 0.5 h, po., 30′, read-out: MES 30′ ED50
# [22] = 1 h, po., 60 min before induction, read-out: MES (MES 60′) ED50
SMILES,IC50 [1] [nM],IC50 [2] [nM],"ED50 [3, 21] [mg/kg]","ED50 [3, 22] [mg/kg]",ED50 ([4]; po.) [mg/kg],ED50 ([5]; po.) [mg/kg],ED50 ([6]; po.) [mg/kg],ED50 ([7]; po.) [mg/kg],ED50 [8] [mg/kg],ED50 ([9]; po.) [mg/kg],ED50 ([10]; po.) [mg/kg],ED50 [11] [mg/kg],ED50 [12] [mg/kg],"change in vivo at 7.5 mg/kg ([13]; female rats, 0-8 day) [%]","change in vivo at 7.5 mg/kg ([13]; female rats, 0-14 day) [%]",ED50 [14] [mg/kg],ED50 [15] [mg/kg],melting point [°C],change in vivo at 3.75 mg/kg ([16]; 0-8 day) [%],change in vivo at 3.75 mg/kg ([16]; 0-14 day) [%],further results
"COCc1nnc(N2N=C(c3ccc(N)c(C)c3)c3cc4c(cc3C[C@H]2C)OCO4)s1 [Example 168, (R)-5-(4-Amino-3-methylphenyl)-8-methyl-7-(5-methoxymethyl-1,3,4-thiadiazol-2-yl)-8,9-dihydro-7H-1,3-dioxolo-[4,5-h][2,3]benzodiazepine]",82,11,2.21,4.49,6.9,10,6.7,10.6,17.7,4.6,4.62,3.58,0.8,-55,-56,3.29,4.11,171 to 172,-16,-23,
"CC1=NN=C(c2ccc(N)cc2)c2cc3c(cc2C1)OCO3 [GYKI 52466, 5-(4-aminophenyl)-8-methyl-9H-1,3-dioxolo[4,5-h][2,3]benzodiazepine, reference compound]",9500,8800,,,,,,,71.8,,,47.1,25.1,,,20.5,37.1,,,,"ED50 ([3]; po, 0.5 h, read-out: MES 30′ ED50): 21.9 mg/kg; ED50 ([3]; po, 1 h, read-out: MES (MES 60′) ED50): 37.4 mg/kg; ED50 ([4]; po): 120 mg/kg; ED50 ([5]; po): 86.7 mg/kg; ED50 ([6]; po): 71.9 mg/kg; ED50 ([7]; po): 35 mg/kg; ED50 ([9]; po): 43 mg/kg; ED50 ([10]; po): 47 mg/kg; change in vivo at 30 mg/kg ([13]; female rats, 0-8 day): -45%; change in vivo at 30 mg/kg ([13]; female rats, 0-14 day): -4%; change in vivo at 30 mg/kg ([13]; male rats, 0-8 day): -1%; change in vivo at 30 mg/kg ([13]; male rats, 0-14 day): -1%; ED50, tremor induced by Harmaline 40 mg/kg ip. [17]: 38.5(25.7-57.9) mg/kg po.; MAX: relative contraction compared to the control at a maximal Ach concentration [18]: 135 ± 105%; BALF eosinophil number [19]: 0.91 ± 0.13 ×10^6/ml; Growth of selected tumor cell types [20]: inhibit growth"
"CCc1nnc(N2N=C(c3ccc(N)c(C)c3)c3cc4c(cc3C[C@H]2C)OCO4)s1 [Example 165, (R)-5-(4-Amino-3-methylphenyl)-7-(5-ethyl-1,3,4-thiadiazol-2-yl)-8-methyl-8,9-dihydro-7H-1,3-dioxolo-[4,5-h][2,3]benzodiazepine]",113,24,2.39,3.99,10.1,10.2,10,5.79,18.6,8.6,8.53,2.94,0.91,,,4.63,5.34,129 to 133,,,
"CCCc1nnc(N2N=C(c3ccc(N)c(C)c3)c3cc4c(cc3C[C@H]2C)OCO4)s1 [Example 166, (R)-5-(4-Amino-3-methylphenyl)-8-methyl-7-(5-propyl-1,3,4-thiadiazol-2-yl)-8,9-dihydro-7H-1,3-dioxolo[4,5-h][2,3]benzodiazepine]",201,28,4.54,4.01,9.18,7.29,7.77,13.3,21.8,6.81,9.92,3.27,0.86,-51,-53,2.74,4.54,150 to 154,-6,-9,

# From US20070027143A1, “Novel substituted 2,3-benzodiazepine derivatives” (priority 2003, published 2007)
